Columns and labels:
[1] = test system: PBMC (peripheral blood mononuclear cells); assay: two-way mixed lymphocyte reaction (MLR); assay type: cell-based, human
Excerpt: Various in vitro assays can be used to measure effects of the inventive compounds to module immune activity and have antitumor activity using a variety of cellular types. For example, a mixed lymphocyte reaction (MLR) provides a valuable screening tool to determine biological activity of each inventive compound. In the MLR, PBMCs (peripheral blood mononuclear cells) are obtained by drawing whole blood from healthy volunteers in a heparinized container and diluted with an equal volume of hanks balanced salt solution (HBSS). This mixture is layered on a sucrose density gradient, such as a Ficoll-Hypaque® gradient (specific gravity 1.08), and centrifuged at 1000×g for 25 minutes at room temperature or cooler. PBMC are obtained from a band at a plasma-Ficoll interface, separated and washed at least twice in a saline solution, such as HBSS. Contaminating red cells are lysed, such as by ACK lysis for 10 min at 37° C., and the PBMCs are washed twice in HBSS. The pellet of purified PBMCs is resuspended in complete medium, such as RPMI 1640 plus 20% human inactivated serum. Proliferative response of PBMC to allogeneic stimulation is determined in a two-way MLR performed in a 96-well microliter plate. […] At the conclusion of the incubation tritiated thymidine is added (for example, 1 μCi/well of 40 to 60 Ci/mmole) and proliferation determined by liquid scintillation counting. […]

[2] = test system: murine B-cell proliferation; assay: B-cell proliferation assay (anti-mu antibody and/or IL-4); assay type: cell-based; conditions: stimulated by anti-mu antibody crosslinked and/or IL-4
Protocol: A B-cell proliferation assay determines the effect of the inventive compounds on inhibiting proliferation of stimulated B-cells, stimulated by an anti-mu antibody ([…]), IL-4 or PMA (2.5 nM). Ramos B-cell tumor cells or murine splenocytes can be incubated with a stimulating agent, an inventive compound and tritiated thymidine to measure inhibition of cell proliferation caused by the stimulating agent.

[3] = test system: IL-1-α release in LPS activated PEC; assay: IL-1α release from LPS activated PEC, ELISA; assay type: cell-based; conditions: Mus musculus, at 24 hours after LPS, read-out: maximum inhibition of IL-1α release
Protocol: Cells were isolated and treated with or without 250 μM CT1501R one hour prior to activation with 10 μg/ml LPS. At various times later, supernatants were harvested and assayed for IL-1-α by ELISA (+/-SD)
Murine peritoneal exudate cell macrophages (PEC) were isolated by perfusion of mouse peritoneum and plated into 96-well trays at 5×10^5 cells per well. Cells were stimulated with 5 μg/ml Salmonella abortus equi-derived endotoxin CLPS; Sigma Chemical Co., L-1887) or 50 ng/ml IL-1α (Genzyme; Cambridge, Mass.) with or without the addition of CT1501R added to the cultures one hour prior to addition of the stimulus. At various times thereafter, supernatants were removed and levels of either TNF-α or IL-1α were assayed using commercial 96-well microtiter immunoassay kits (Genzyme; TNF; Endogen, Boston, Mass.; IL-1α) according to manufacturer's specifications. For the adhesion studies, early passage human umbilical vein endothelial cells (HUVEC) were obtained from commercial suppliers (Clonetics, San Diego, Calif. or Cell Systems, Seattle, Wash.) and cultured in defined, Hepes buffered, serum free medium (Cell Systems, cat 301-180) supplemented with acidic FGF (Cell Systems cat 401-111). […] After addition of […] Hanks Balanced Salt Solution (HBSS), the microtiter plate was then analyzed on a Millipore Cytofiuor fluorescent plate reader (excitation 488 nm; emission 525 nm). […]

[4] = test system: IL-1α; assay: mouse plasma IL-1α ELISA after endotoxin; assay type: in vivo, mice
Protocol: FIG. 7 illustrates data from mouse plasma IL-1α ELISA measurements. Data were compiled from an average of duplicate ELISA measurements from a single experiment with each point representing pooled serum from three mice.
For ELISA measurements of cytokine levels in plasma, blood was collected by retro-orbital or cardiac puncture of anesthetized mice, immediately centrifuged and the EDTA plasma stored at -70° C. Particulate free plasma was thawed on ice and cytokine levels determined utilizing commercial ELISA assays with normal mouse plasma used to generate standard curves. Murine tumor necrosis factor-α and interleukin-1α kits were purchased from Genzyme (Cambridge, Mass.) and Endogen (Boston, Mass.), respectively. Each data point was an average of two ELISA measurements made from EDTA serum pooled from three mice. The data summarized in Table 3 were compiled from two independent experiments; data from Table 4 and 5 were from single experiments of three mice per data point.
In particular, peak levels observed at 6, 12 and 18 hours post endotoxin were decreased 1.2, 4.3 and 3.2-fold, respectively. Finally, IL-6 measurements were made in a similar manner (Table 6, FIG. 8).

[5] = test system: hematopoietic reconstitution following 5-FU; assay: 5-fluorouracil (5-FU) induced bone marrow suppression in mice; assay type: in vivo, Balb/C mice
Excerpt: Groups of 4 mice were phlebotomized at each time point. The values on the graph represent the means ±1 SD.
Groups of 4 mice were phlebotomized at each time point. The values on the group represent the means ±1 SD.
Groups of 4 mice were sacrificed and had one femur harvested at each time point. The values on the graph represent the means ±1 SD of the mean number of colonies per each individual tested in triplicate cultures.
Female Balb/C mice (VAF, Charles River Laboratories, 6-8 wks of age approximately 17.3-18.5 g) were treated with 5-FU at a dose of 200 mg/kg intraperitoneally (i.p.) in experiment 1 or 190 μg/kg in experiment 2. […] Mice (4 per group) were sacrificed starting 2 days after 5-FU by cardiac puncture under halothane anesthesia followed by cervical dislocation and had total white blood cell counts and differential counts performed. Platelet counts were performed using phase-contrast microscopy in duplicate. Femurs were harvested and the number of granulocyte-macrophage colony forming cells (CFU-GM) per femur were measured using a standard assay (Terry Fox Laboratories, Vancouver, British Columbia) using pokeweed mitogen spleen conditioned medium as the growth factor. Each femur was plated separately in triplicate and the mean and means for each experimental point was calculated. Standard deviations used for staffstidal analysis were deviations of the mean number of colonies measured for each femur.
Experiment 2 was similar to experiment 1 with the following exceptions: (1) the dose of 5-FU was decreased to 185 mg/kg; (2) daily blood draws were performed between days 10 and 15; and (3) platelet counts were performed.

Structure (SMILES): C[C@@H](O)CCCCn1c(=O)c2c(ncn2C)n(C)c1=O [CT1501R, (R)-1-(5-hydroxyhexyl)-3,7-dimethylxanthine]
- proliferative response of PBMC to allogeneic stimulation [1]: showed dose-response activity
- inhibition of murine B-cell proliferation [2]: inhibited B-cell proliferation
- inhibition at 250 µM [3]: ~50%
- decrease of peak plasma IL-1α vs endotoxin only ([4]; 6 hours post endotoxin): 1.2 fold
- decrease of peak plasma IL-1α vs endotoxin only ([4]; 12 hours post endotoxin): 4.3 fold
- decrease of peak plasma IL-1α vs endotoxin only ([4]; 18 hours post endotoxin): 3.2 fold
- increase in number of CFU-GM/femur during hematopoietic recovery vs control ([5]; 5-FU treated mice): approximately two-fold increase
- CFU-GM/femur vs vehicle control and day 0 ([5]; experiment 1, day 13 (p=0.024 vs vehicle, p=0.05 vs day 0)): significantly more CFU-GM/femur on day 13
- ANC (absolute neutrophil count), mean ±SD ([5]; experiment 1, day 13 after 5-FU (control 180±10/mm^3, P=0.05)): 440±17 /mm^3
- WBC of 5-FU treated mice vs vehicle control ([5]; experiment 1, days 6 and 10 (p=0.019 and 0.036)): significantly lower in vehicle treated controls than in CT1501R treated mice
- WBC vs vehicle control ([5]; experiment 2): significantly higher WBC's
- neutrophil recovery ([5]; experiment 2): Neutrophil recovery was accelerated
- number of cells per femur during hematopoietic recovery vs control ([5]; experiment 2): number of cells per femur was increased
- platelet count nadir and rate of recovery vs vehicle control ([5]; experiment 2): platelet count nadir and rate of recovery were also increased
- WBC and ANC, mice without 5-FU ([5]; i.p. bid, no 5-FU): remained within 1 SD of control values
- adverse effects, mice without 5-FU ([5]; i.p. bid, no 5-FU): no apparent adverse effects
- rise in ANC and CFU-GM/femur associated with vehicle injections, mice without 5-FU ([5]; no 5-FU, twice daily i.p. injections): prevented both the rise in ANC and rise in CFU-GM/femur
